Molecular target: T1, recombinant human GST-Syk (Homo sapiens, UniProt P43405)
T1 construct: purchased Carna Biosciences 08-176
Assay: Homogeneous Time-Resolved Fluorescence (HTRF) assay for the recombinant human Syk enzyme
Type: biochemical
Conditions: recombinant human GST-Syk 5 pM, ATP 25 μM, read-out: IC50
Procedure: Syk inhibition of the compounds of Formula (I) may be determined using the following assay protocol: Homogeneous Time-Resolved Fluorescence (HTRF) Assay for the Recombinant Human Syk Enzyme: A recombinant GST-hSyk fusion protein was used to measure potency of compounds to inhibit human Syk activity. […] Final volume of the reaction was 10 μL. Phosphorylation of the peptide was allowed to proceed for 45' at room temperature. To quench the reaction and detect the phosphorylated product, 2 nM of a Europium-anti-phosphotyrosine antibody (Perkin Elmer #AD0161) and 70 nM SA-APC (Perkin-Elmer #CR130-100) were added together in 15 mM Tris pH 7.5, 40 mM EDTA, 0.01% tween 20. Final volume of the quenching solution was 10 μL. The resulting HTRF signal was measured after 30 minutes on a EnVision (Perkin-Elmer) reader using a time-resolved fluorescence protocol.

Compound | IC50 [nM]
Cc1cc(Nc2cc(C(F)F)ccn2)nc(-c2ccc([C@](C)(O)[C@H]3CC[C@H](C(=O)OC(C)OC(=O)c4cnn(C)c4)CC3)nc2)c1 (single isomer, unassigned) [Example 3-2a] | 19.1
Cc1cc(Nc2cc(C(F)F)ccn2)nc(-c2ccc([C@](C)(O)[C@H]3CC[C@H](C(=O)OC(C)OC(=O)c4cnn(C)c4)CC3)nc2)c1 (single isomer, unassigned) [Example 3-2b] | 22.4
COCCN(C)C(=O)OC(C)OC(=O)[C@H]1CC[C@H]([C@@](C)(O)c2ccc(-c3cc(C)cc(Nc4cc(C(F)F)ccn4)n3)cn2)CC1 (single isomer, unassigned) [Example 4-1b] | 12.9
Cc1cc(Nc2cc(C(F)F)ccn2)nc(-c2ccc([C@](C)(O)[C@H]3CC[C@H](C(=O)OCOC(=O)OCC[S+](C)[O-])CC3)nc2)c1 (single isomer, unassigned) [Example 7-5] | 0.6
Cc1cc(Nc2cc(C(F)F)ccn2)nc(-c2ccc([C@](C)(O)[C@H]3CC[C@H](C(=O)OCC(C)(C)O)CC3)nc2)c1 [Example 1-1, 2-Hydroxy-2-methylpropyl trans-4-[(1R)-1-(6-{[4-(difluoromethyl)pyridin-2-yl]amino}-4-methyl-2,3′-bipyridin-6′-yl)-1-hydroxyethyl]cyclohexanecarboxylate] | 8.1
Cc1cc(Nc2cc(C(F)F)ccn2)nc(-c2ccc([C@](C)(O)[C@H]3CC[C@H](C(=O)OC[C@@H](O)CO)CC3)nc2)c1 [Example 1-3, (2S)-2,3-Dihydroxypropyl trans-4-[(1R)-1-(6-{[4-(difluoromethyl)pyridin-2-yl]amino}-4-methyl-2,3′-bipyridin-6′-yl)-1-hydroxyethyl]cyclohexanecarboxylate] | 2.5
Cc1cc(Nc2cc(C(F)F)ccn2)nc(-c2ccc([C@](C)(O)[C@H]3CC[C@H](C(=O)OC[C@H]4OC(O)[C@H](O)[C@@H](O)[C@@H]4O)CC3)nc2)c1 (stereo partly drawn) [Example 1-4, 6-O-({trans-4-[(1R)-1-(6-{[4-(difluoromethyl)pyridin-2-yl]amino}-4-methyl-2,3′-bipyridin-6′-yl)-1-hydroxyethyl]cyclohexyl}carbonyl)-D-glucopyranose] | 0.8
Cc1cc(Nc2cc(C(F)F)ccn2)nc(-c2ccc([C@](C)(O)[C@H]3CC[C@H](C(=O)Oc4ccccc4)CC3)nc2)c1 [Example 1-6, Phenyl trans-4-[(1R)-1-(6-{[4-(difluoromethyl)pyridin-2-yl]amino}-4-methyl-2,3′-bipyridin-6′-yl)-1-hydroxyethyl]cyclohexanecarboxylate] | 9.7
CSCCOC(=O)[C@H]1CC[C@H]([C@@](C)(O)c2ccc(-c3cc(C)cc(Nc4cc(C(F)F)ccn4)n3)cn2)CC1 [Example 1-7, 2-(methylsulfanyl)ethyl trans-4-[(1R)-1-(6-{[4-(difluoromethyl)pyridin-2-yl]amino}-4-methyl-2,3′-bipyridin-6′-yl)-1-hydroxyethyl] cyclohexanecarboxylate] | 18.2
Cc1cc(Nc2cc(C(F)F)ccn2)nc(-c2ccc([C@](C)(O)[C@H]3CC[C@H](C(=O)OCC[N+](C)(C)C)CC3)nc2)c1 [Example 1-10, 2-[({trans-4-[(1R)-1-(6-{[4-(difluoromethyl)pyridin-2-yl]amino}-4-methyl-2,3′-bipyridin-6′-yl)-1-hydroxyethyl]cyclohexyl}carbonyl)oxy]-N,N,N-trimethylethanaminium] | 1.7
COc1ccc(OC(=O)[C@H]2CC[C@H]([C@@](C)(O)c3ccc(-c4cc(C)cc(Nc5cc(C(F)F)ccn5)n4)cn3)CC2)cc1 [Example 1-28, 4-methoxyphenyl trans-4-[(1R)-1-(6-{[4-(difluoromethyl)pyridin-2-yl]amino}-4-methyl-2,3′-bipyridin-6′-yl)-1-hydroxyethyl] cyclohexanecarboxylate] | 7.2
Cc1cc(Nc2cc(C(F)F)ccn2)nc(-c2ccc([C@](C)(O)[C@H]3CC[C@H](C(=O)OCOC(=O)OCCOCc4ccccc4)CC3)nc2)c1 [Example 2-3, ({[2-(benzyloxy)ethoxy]carbonyl}oxy) methyl trans-4-[(1R)-1-(6-{[4-(difluoromethyl)pyridin-2-yl]amino}-4-methyl-2,3′-bipyridin-6′-yl)-1-hydroxyethyl]cyclo hexanecarboxylate] | 6.2
CCOCCOCCOCCOC(=O)OCOC(=O)[C@H]1CC[C@H]([C@@](C)(O)c2ccc(-c3cc(C)cc(Nc4cc(C(F)F)ccn4)n3)cn2)CC1 [Example 2-5, 3-oxo-2,4,7,10,13-pentaoxapentadec-1-yl trans-4-[(1R)-1-(6-{[4-(difluoromethyl)pyridin-2-yl]amino}-4-methyl-2,3′-bipyridin-6′-yl)-1-hydroxyethyl]cyclo hexanecarboxylate] | 7.5
CCOCC(COCC)OC(=O)OCOC(=O)[C@H]1CC[C@H]([C@@](C)(O)c2ccc(-c3cc(C)cc(Nc4cc(C(F)F)ccn4)n3)cn2)CC1 [Example 2-8, ({[2-ethoxy-1-(ethoxymethyl)ethoxy]carbonyl}oxy) methyl trans-4-[(1R)-1-(6-{[4-(difluoromethyl)pyridin-2-yl]amino}-4-methyl-2,3′-bipyridin-6′-yl)-1-hydroxyethyl]cyclo hexanecarboxylate] | 22.8
CSCCOC(=O)OCOC(=O)[C@H]1CC[C@H]([C@@](C)(O)c2ccc(-c3cc(C)cc(Nc4cc(C(F)F)ccn4)n3)cn2)CC1 [Example 2-10, ({[2-(methylsulfanyl)ethoxy]carbonyl}oxy) methyl trans-4-[(1R)-1-(6-{[4-(difluoromethyl)pyridin-2-yl]amino}-4-methyl-2,3′-bipyridin-6′-yl)-1-hydroxyethyl]cyclo hexanecarboxylate] | < 0.5
Cc1cc(Nc2cc(C(F)F)ccn2)nc(-c2ccc([C@](C)(O)[C@H]3CC[C@H](C(=O)OCOC(=O)OCCC(=O)N(C)C)CC3)nc2)c1 [Example 2-12, ({[3-(dimethylamino)-3-oxopropoxy]carbonyl}oxy)methyl trans-4-[(1R)-1-(6-{[4-(difluoromethyl)pyridin-2-yl]amino}-4-methyl-2,3′-bipyridin-6′-yl)-1-hydroxyethyl]cyclo hexanecarboxylate] | 1.5
Cc1cc(Nc2cc(C(F)F)ccn2)nc(-c2ccc([C@](C)(O)[C@H]3CC[C@H](C(=O)OCOC(=O)OCc4nccn4C)CC3)nc2)c1 [Example 2-13, ({[(1-methyl-1H-imidazol-2-yl)methoxy]carbonyl}oxy)methyl trans-4-[(1R)-1-(6-{[4-(difluoromethyl)pyridin-2-yl]amino}-4-methyl-2,3′-bipyridin-6′-yl)-1-hydroxyethyl]cyclo hexanecarboxylate] | 34.6
CCOCCOCCOC(=O)OC(C)OC(=O)[C@H]1CC[C@H]([C@@](C)(O)c2ccc(-c3cc(C)cc(Nc4cc(C(F)F)ccn4)n3)cn2)CC1 (stereo partly drawn) [Example 2-15, 1-methyl-3-oxo-2,4,7,10-tetraoxadodec-1-yl trans-4-[(1R)-1-(6-{[4-(difluoromethyl)pyridin-2-yl]amino}-4-methyl-2,3′-bipyridin-6′-yl)-1-hydroxyethyl]cyclo hexanecarboxylate] | 32.9
Cc1cc(Nc2cc(C(F)F)ccn2)nc(-c2ccc([C@](C)(O)[C@H]3CC[C@H](C(=O)OC(C)OC(=O)c4cnn(C)c4)CC3)nc2)c1 (stereo partly drawn) [Example 3-2, 1-[({Trans-4-[(1R)-1-(6-{[4-(difluoromethyl)pyridin-2-yl]amino}-4-methyl-2,3′-bipyridin-6′-yl)-1-hydroxyethyl]cyclohexyl}carbonyl)oxy]ethyl 1-methyl-1H-pyrazole-4-carboxylate] | 1.9
Cc1cc(Nc2cc(C(F)F)ccn2)nc(-c2ccc([C@](C)(O)[C@H]3CC[C@H](C(=O)OCOC(=O)C(C)(C)O)CC3)nc2)c1 [Example 3-3, [(2-Hydroxy-2-methylpropanoyl)oxy]methyl trans-4-[(1R)-1-(6-{[4-(difluoromethyl)pyridin-2-yl]amino}-4-methyl-2,3′-bipyridin-6′-yl)-1-hydroxyethyl]cyclohexanecarboxylate] | 2.3
Cc1cc(Nc2cc(C(F)F)ccn2)nc(-c2ccc([C@](C)(O)[C@H]3CC[C@H](C(=O)OCOC(=O)CO)CC3)nc2)c1 [Example 3-5, [(hydroxyacetyl)oxy] methyl trans-4-[(1R)-1-(6-{[4-(difluoromethyl)pyridin-2-yl]amino}-4-methyl-2,3′-bipyridin-6′-yl)-1-hydroxyethyl]cyclohexane carboxylate] | < 0.5
CC(=O)N[C@@H](CC(C)C)C(=O)OCOC(=O)[C@H]1CC[C@H]([C@@](C)(O)c2ccc(-c3cc(C)cc(Nc4cc(C(F)F)ccn4)n3)cn2)CC1 [Example 3-7, [({trans-4-[(1R)-1-(6-{[4-(difluoromethyl)pyridin-2-yl]amino}-4-methyl-2,3′-bipyridin-6′-yl)-1-hydroxyethyl]cyclohexyl}carbonyl)oxy]methyl N-acetyl-L-leucinate] | 12.7
Cc1cc(Nc2cc(C(F)F)ccn2)nc(-c2ccc([C@](C)(O)[C@H]3CC[C@H](C(=O)OCOC(=O)c4cnn(C)c4)CC3)nc2)c1 [Example 3-8, [({trans-4-[(1R)-1-(6-{[4-(difluoromethyl)pyridin-2-yl]amino}-4-methyl-2,3′-bipyridin-6′-yl)-1-hydroxyethyl]cyclohexyl}carbonyl)oxy]methyl 1-methyl-1H-pyrazole-4-carboxylate] | 8.3
COCCOCCNC(=O)OCOC(=O)[C@H]1CC[C@H]([C@@](C)(O)c2ccc(-c3cc(C)cc(Nc4cc(C(F)F)ccn4)n3)cn2)CC1 [Example 4-3, 3-oxo-2,7,10-trioxa-4-azaundec-1-yl trans-4-[(1R)-1-(6-{[4-(difluoromethyl)pyridin-2-yl]amino}-4-methyl-2,3′-bipyridin-6′-yl)-1-hydroxyethyl]cyclohexanecarboxylate] | 2.4

Source: patent US20150299125A1, “PRODRUG BIPYRIDYLAMINOPYRIDINES AS SYK INHIBITORS” (MERCK SHARP & DOHME CORP., priority 2012, published 2015)
